Data as given in patent US20090012047A1, “Crystalline forms of ibandronate sodium” (priority 2006, published 2009).

Test: Storage stability of crystalline forms at room temperature for two years (form by XRD)
Assay type: physicochemical
Settings: for Crystal form after 2 years: 1 g sample in closed glass bottle, room temperature, form by XRD, monosodium salt
Procedure: The x-ray powder diffraction was performed on Scintag X-ray powder diffractometer model X'TRA with a solid state detector at room temperature. Copper radiation of 1.5418 Å was used. The sample holder was a round standard aluminum sample holder with rough zero background. The scanning parameters were range: 2-40 degrees two-theta; scan mode: continuous scan; step size: 0.05 degrees; and at a rate of 5 degrees/minute.
1 g samples of crystalline ibandronate sodium Forms K1, D, J, H, E, Q2, QQ, K3, Q4, L, G, C, S, R, Q3, K, and Q6, as well as amorphous form were each placed into separate glass bottles, which were then closed and stored at room temperature for 2 years.

| SMILES | Crystal form after 2 years | Stability of crystalline form on storage (about 15° C. to about 30° C. for more than about 3 months, as described in Example 7) | Retention of crystalline form after storage (room temperature for two years) | Crystal form after 2 years (listed as H) |
| --- | --- | --- | --- | --- |
| CCCCCN(C)CCC(O)(P(=O)([O-])O)P(=O)(O)O.[Na+] [Form C, (1-hydroxy-3-(N-methyl-N-pentylamino)propylidene) bisphosphonic acid monosodium salt] | Form V | – | – | – |
| CCCCCN(C)CCC(O)(P(=O)([O-])O)P(=O)(O)O.[Na+] [Form D, (1-hydroxy-3-(N-methyl-N-pentylamino)propylidene) bisphosphonic acid monosodium salt] | – | stable | maintained their crystalline form | – |
| CCCCCN(C)CCC(O)(P(=O)([O-])O)P(=O)(O)O.[Na+] [Form H, (1-hydroxy-3-(N-methyl-N-pentylamino)propylidene) bisphosphonic acid monosodium salt] | mixture of crystalline ibandronate sodium Forms H and V | – | – | H + V |
| CCCCCN(C)CCC(O)(P(=O)([O-])O)P(=O)(O)O.[Na+] [Form S, (1-hydroxy-3-(N-methyl-N-pentylamino)propylidene) bisphosphonic acid monosodium salt] | Q plus additional XRD reflections at 10.4, | – | – | – |
